Tests used:
AuroraB (h) = AuroraB (h) (Homo sapiens, UniProt Q96GD4); experiment: Aurora-B human kinase inhibition, SPA; assay type: biochemical; settings: read-out: AuroraB pIC50 (converted)
In short: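 SPA with biotinylated peptide (3 μM) in 60 mM Hepes pH 7.5, Mg/Mn 3 mM each, 0.5 μM ATP plus [γ-33P]ATP, AuroraB at 0.5 μg/ml. The reaction runs 60 min at room temperature and is stopped with EDTA and streptavidin PVT beads. 33P-substrate is read by scintillation imaging.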

GSK3β (h) = GSK3β (h) (Homo sapiens, UniProt P49841); experiment: GSK-3β human kinase inhibition, SPA; assay type: biochemical; settings: read-out: GSK3b pIC50 (converted)
GSK3β (h), sequence (P49841 whole entry): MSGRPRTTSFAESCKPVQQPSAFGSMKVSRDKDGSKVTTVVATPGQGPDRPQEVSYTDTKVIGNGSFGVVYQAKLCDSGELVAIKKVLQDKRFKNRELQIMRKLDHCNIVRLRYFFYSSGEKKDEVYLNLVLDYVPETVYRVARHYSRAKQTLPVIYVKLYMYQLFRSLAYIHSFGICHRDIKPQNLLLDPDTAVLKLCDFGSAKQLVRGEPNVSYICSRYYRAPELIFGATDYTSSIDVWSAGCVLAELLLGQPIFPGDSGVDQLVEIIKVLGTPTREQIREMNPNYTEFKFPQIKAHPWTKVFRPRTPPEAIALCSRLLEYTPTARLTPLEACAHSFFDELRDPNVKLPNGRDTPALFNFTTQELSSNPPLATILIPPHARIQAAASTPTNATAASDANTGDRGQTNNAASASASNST
In short: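 Scintillation proximity assay: GSK3β (1 μg/ml) with 1 μM biotinylated peptide, 1 μM ATP plus [γ-33P]ATP in Tris pH 7.4, MgCl2, DTT. 60 min at room temperature, stopped with EDTA and streptavidin PVT beads; phosphorylation read by Leadseeker imaging.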

CDK1/CyclinB (h) = CDK1/CyclinB (h) (Homo sapiens, UniProt P06493); experiment: CDK1/CyclinB human kinase inhibition, Invitrogen's FRET assay (Z'lyte); assay type: biochemical; settings: read-out: CDK1 pIC50 (converted)
CDK1/CyclinB (h), sequence (P06493 whole entry): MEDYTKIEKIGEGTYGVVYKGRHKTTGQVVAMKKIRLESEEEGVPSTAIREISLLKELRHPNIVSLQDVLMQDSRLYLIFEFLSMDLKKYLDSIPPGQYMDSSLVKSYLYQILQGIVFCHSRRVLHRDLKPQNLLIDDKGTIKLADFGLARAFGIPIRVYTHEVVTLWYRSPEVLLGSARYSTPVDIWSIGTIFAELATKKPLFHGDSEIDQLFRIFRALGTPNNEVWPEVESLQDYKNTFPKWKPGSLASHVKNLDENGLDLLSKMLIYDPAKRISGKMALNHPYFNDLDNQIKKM
CDK1/CyclinB (h), sequence (P14635 whole entry partner): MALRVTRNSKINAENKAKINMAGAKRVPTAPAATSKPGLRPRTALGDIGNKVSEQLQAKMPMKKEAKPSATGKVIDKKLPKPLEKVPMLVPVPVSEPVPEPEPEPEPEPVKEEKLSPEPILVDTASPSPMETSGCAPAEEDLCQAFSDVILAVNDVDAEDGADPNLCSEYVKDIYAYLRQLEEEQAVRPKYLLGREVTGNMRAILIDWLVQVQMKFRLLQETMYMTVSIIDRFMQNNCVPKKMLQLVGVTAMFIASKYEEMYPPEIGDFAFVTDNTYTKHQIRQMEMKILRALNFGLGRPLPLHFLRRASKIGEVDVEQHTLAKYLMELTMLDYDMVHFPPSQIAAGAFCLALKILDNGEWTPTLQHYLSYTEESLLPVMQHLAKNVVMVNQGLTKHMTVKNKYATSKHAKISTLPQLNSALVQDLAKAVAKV
In short: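 Z'lyte FRET assay: human CDK1/CyclinB (0.2 μg/ml) with 2 μM Ser/Thr peptide 12 and 10 μM ATP in 50 mM Hepes pH 7.5, MgCl2, EGTA, Brij-35, 60 min at room temperature. Protease development 60 min, then emission ratio 460/538 nm read with excitation at 390 nm.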

PLK1 T210D (h) = PLK1 T210D (h) (Homo sapiens, UniProt P53350, T210D); experiment: PLK1 human kinase inhibition, SPA; assay type: biochemical; settings: read-out: PLK1 pIC50 (converted)
PLK1 T210D (h), sequence (P53350 whole entry T210D): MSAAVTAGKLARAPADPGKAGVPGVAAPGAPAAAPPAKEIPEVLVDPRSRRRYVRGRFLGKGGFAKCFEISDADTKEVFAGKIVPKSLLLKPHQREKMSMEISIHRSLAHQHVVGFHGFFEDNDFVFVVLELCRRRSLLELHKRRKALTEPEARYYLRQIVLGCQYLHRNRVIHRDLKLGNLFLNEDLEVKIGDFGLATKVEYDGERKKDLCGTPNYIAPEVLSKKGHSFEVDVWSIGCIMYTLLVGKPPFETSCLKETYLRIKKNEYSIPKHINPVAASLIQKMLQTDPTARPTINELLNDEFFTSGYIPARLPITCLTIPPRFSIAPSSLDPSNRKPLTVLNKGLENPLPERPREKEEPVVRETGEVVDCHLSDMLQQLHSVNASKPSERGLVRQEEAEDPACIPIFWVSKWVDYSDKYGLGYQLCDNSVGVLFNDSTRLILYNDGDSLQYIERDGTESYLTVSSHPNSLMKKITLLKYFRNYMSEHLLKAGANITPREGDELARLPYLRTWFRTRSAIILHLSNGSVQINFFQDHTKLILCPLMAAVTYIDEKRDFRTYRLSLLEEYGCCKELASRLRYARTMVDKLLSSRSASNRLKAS
In short: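 Radiometric SPA with PLK1 T210D (0.125 ng/ml) in 50 mM Hepes pH 8.0, 2 mM MnCl2, 1 mM DTT, 2 μM biotinylated peptide, 0.1 μM ATP plus 2 nM [γ-33P]ATP. 40 min at room temperature, EDTA stop. Phosphorylated substrate captured on streptavidin PVT beads, scintillation imaged.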

PLK3 (h) = PLK3 (h) (Homo sapiens, UniProt Q9H4B4); experiment: PLK3 human kinase inhibition, SPA; assay type: biochemical; settings: read-out: PLK3 pIC50 (converted)
PLK3 (h), sequence (Q9H4B4 whole entry): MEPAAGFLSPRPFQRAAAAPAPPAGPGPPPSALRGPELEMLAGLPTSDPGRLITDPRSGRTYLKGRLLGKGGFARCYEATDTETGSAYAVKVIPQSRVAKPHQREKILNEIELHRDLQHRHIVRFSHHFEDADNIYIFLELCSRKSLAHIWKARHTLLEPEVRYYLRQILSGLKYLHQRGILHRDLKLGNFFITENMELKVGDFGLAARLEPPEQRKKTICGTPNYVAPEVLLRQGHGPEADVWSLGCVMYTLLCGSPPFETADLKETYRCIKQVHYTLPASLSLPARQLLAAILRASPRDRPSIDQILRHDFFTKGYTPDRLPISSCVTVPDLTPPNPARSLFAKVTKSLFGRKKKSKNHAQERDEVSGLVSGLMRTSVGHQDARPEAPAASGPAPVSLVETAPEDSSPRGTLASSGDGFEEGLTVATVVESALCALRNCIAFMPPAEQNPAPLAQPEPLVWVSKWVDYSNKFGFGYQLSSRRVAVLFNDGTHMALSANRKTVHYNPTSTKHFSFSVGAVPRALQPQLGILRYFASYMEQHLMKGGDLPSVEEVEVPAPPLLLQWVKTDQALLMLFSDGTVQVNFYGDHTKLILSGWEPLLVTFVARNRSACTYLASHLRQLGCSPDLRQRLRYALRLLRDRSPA
In short: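 SPA: PLK3 (h) at 30 μg/ml with 2 μM biotinylated peptide, 0.1 μM ATP plus 2 nM [γ-33P]ATP in 50 mM Hepes pH 8.0, 2 mM MnCl2 and 1 mM DTT. Incubated 20 min at room temperature, then stopped with EDTA and streptavidin PVT beads. Scintillation imaged on Leadseeker.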

HCT-116 = experiment: Cellular proliferation assay (Alamar blue), HCT-116; assay type: cell-based; settings: Homo sapiens, 10% FCS, 72 hours with compound, Alamar blue 4 h
In short: (§1)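 24 h seeding without compound, 10% FCS, 37° C/5% CO2; 72 h compound; Alamar blue (resazurin 9 μg/ml, ferro-/ferricyanide 90 μM) 4 h HCT-116, 6 h U87-MG, 24 h A2780/MDA-MB-231; fluorescence 544/590 nm vs control cells.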

H1299 = experiment: Cellular proliferation assay (Alamar blue), H1299; assay type: cell-based; settings: Homo sapiens, NCI-H1299; 10% FCS; 72 hours with compound; Alamar blue 4 h
In short: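 This proliferation assay on NCI-H1299 cells used an initial 24-hour compound-free incubation after seeding, followed by 72 hours of compound treatment with 10% FCS serum at 37° C. and 5% (v/v) CO2. Viable cells were quantified by a 4 h Alamar blue incubation and fluorescent plate reading at 544 nm/590 nm, and effects were expressed relative to control cells.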

U87-MG = experiment: Cellular proliferation assay (Alamar blue), U87-MG; assay type: cell-based; settings: Homo sapiens, U-87 MG; 10% FCS; 72 hours with compound; Alamar blue 6 h; read-out: U87-MG (cellular proliferation assay, Table 4) (converted)
In short: as §1

A2780 = experiment: Cellular proliferation assay (Alamar blue), A2780; assay type: cell-based; settings: Homo sapiens, 10% FCS, 72 hours with compound, Alamar blue 24 h, read-out: A2780 (cellular proliferation assay, Table 4) (converted)
In short: as §1

AuroraB (h), sequence (Q96GD4 whole entry): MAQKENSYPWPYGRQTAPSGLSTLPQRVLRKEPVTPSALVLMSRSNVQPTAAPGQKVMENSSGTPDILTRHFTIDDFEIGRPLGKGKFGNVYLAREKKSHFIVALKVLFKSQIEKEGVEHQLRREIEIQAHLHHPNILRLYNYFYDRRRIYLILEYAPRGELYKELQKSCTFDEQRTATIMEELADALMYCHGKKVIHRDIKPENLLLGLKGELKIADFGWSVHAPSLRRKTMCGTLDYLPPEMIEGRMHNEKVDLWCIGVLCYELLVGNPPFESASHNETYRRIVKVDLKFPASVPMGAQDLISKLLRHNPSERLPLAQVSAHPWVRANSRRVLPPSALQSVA

For O=C1CN2CCN(CC2)Cc2cc(ccc2N2CCOCC2)Nc2nccc(n2)-c2ccc(cc2)OCCN1 [Compound 9], the IC50 (AuroraB (h)) was greater than 10 µM, the IC50 (GSK3β (h)) was 1.45 µM and the IC50 (CDK1/CyclinB (h)) was greater than 10 µM. It also gave an IC50 (PLK1 T210D (h)) greater than 10 µM, an IC50 (PLK3 (h)) greater than 10 µM and an IC50 (HCT-116) of 7.76 µM. It also gave an IC50 (H1299) greater than 10 µM, an IC50 (U87-MG) of 1.55 µM and an IC50 (A2780) greater than 10 µM.
